Source: patent US6589962B1, “Alpha-hydroxy-gamma-[[(carbocyclic-or heterocyclic-substituted)amino]carbonyl]alkanamide derivatives and uses thereof” (priority 1999, dated 2003)

Test system: HIV-1 viral constructs Q60, K-60, and V-18
Test: Cell spread assay (HIV-1 p24 accumulation in MT-4 T-lymphoid cells), mutant viral constructs
Format: cell-based
Settings: one range stated for the three mutant viral constructs together; MT-4 cells, 4 days postinfection
Method: Inhibition of the spread of HIV in cell culture was measured according to Nunberg et al., J. Virol. […] In this assay, MT-4 T-lymphoid cells were infected with HIV-1 (wild-type, unless otherwise indicated) by using a predetermined inoculum, and cultures were incubated for 24 h. At this time, ≦1% of the cells were positive by indirect immunofluorescence. Cells were then extensively washed and distributed into 96-well culture dishes. Serial twofold dilutions of inhibitor were added to the wells, and cultures were continued for 3 additional days. At 4 days postinfection, 100% of the cells in control cultures were infected. HIV-1 p24 accumulation was directly correlated with virus spread. The cell culture inhibitory concentration was defined as the inhibitor concentration in nanomoles/liter which reduced the spread of infection by at least 95%, or CIC95.

CC(C)(C)NC(=O)[C@@H]1CN(Cc2cccnc2)CCN1C[C@@H](O)C[C@@H](Cc1ccccc1)C(=O)N[C@H]1c2ccccc2C[C@H]1O [indinavir, N-(2(R)-hydroxy-1(S)-indanyl)-2(R)-phenylmethyl-4-(S)-hydroxy-5-(1-(4-(3-pyridyl-methyl)-2(S)-N′-(t-butylcarboxamido)-piperazinyl))-pentaneamide]
CIC95 against the viral constructs Q60, K-60, and V-18: greater than 1000 nM
